Measurements as given in US6914045B2, “Glycopeptide antibiotics” (Wyeth Holdings Corporation, priority 2001, dated 2005).
In brackets after ≈: the same amount, converted by molar mass.

Experiments:
Test in all cases: in vitro antibacterial evaluation, MIC by broth dilution
Assay type in all cases: cell-based
Conditions in all cases: broth dilution, 18 hours at 35° C.
[1] = test system: Streptococcus sp.
Procedure, shortened: (§1)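 MIC = lowest antibiotic concentration preventing visible growth; inoculum 5×10^5 CFU/mL; drug range 64-0.06 μg/mL; Muller-Hinton II […]; NCCLS M7-A2 guidance.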

[2] = test system: Staphylococcus sp.
Procedure, shortened: as §1

[3] = test system: Enterococcus sp.
Procedure, shortened: as §1

[4] = test system: Escherichia coli
Procedure, shortened: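 Broth dilution MIC per NCCLS M7-A2 in Mueller-Hinton II medium, inoculum 5×10^5 CFU/mL, antibiotic range 64-0.06 μg/mL. MIC taken as lowest concentration inhibiting growth.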

**Q.** How did the “MIC Streptococcus pneumoniae (ATCC 6301)” value ([1]; strain ATCC 6301) turn out when `CCCCCCC(=O)Nc1cc(CC2NC(=O)C(C(C)c3ccccc3)NC(=O)CNC(=O)C(CO)NC(=O)C(C(O)C3CNC(=N)N3C3OC(CO)C(O)C(O)C3O)NC(=O)C(C(O)C3CNC(=N)N3)NC2=O)ccc1O` (stereo not drawn) [Example 16, Cyclo[glycyl-β-methylphenylalanyl-3-(heptanamido)tyrosyl-3-(2-iminoimidazolidin-4-yl)seryl-3-(3-hexopyranosyl-2-iminoimidazolidin-4-yl)serylseryl]] was run?
**A.** 128 µg/mL (≈ 117 µM)

**Q.** And the “MIC Streptococcus pneumoniae (GC 1894)” value ([1]; strain GC 1894)?
**A.** 64 µg/mL (≈ 58.3 µM)

**Q.** What about the “MIC Streptococcus pyogenes (GC 4563)” value ([1]; strain GC 4563) of the same compound?
**A.** 16 µg/mL (≈ 14.6 µM)

**Q.** And the “MIC Streptococcus agalactiae (GC 4564)” value ([1]; strain GC 4564)?
**A.** 64 µg/mL (≈ 58.3 µM)

**Q.** And the “MIC Streptococcus pneumoniae (GC 4565)” value ([1]; strain GC 4565)?
**A.** 128 µg/mL (≈ 117 µM)

**Q.** And the “MIC Staphylococcus aureus (ATCC 29213)” value ([2]; strain ATCC 29213)?
**A.** 128 µg/mL (≈ 117 µM)

**Q.** What about the “MIC Staphylococcus aureus (GC 1131)” value ([2]; strain GC 1131) of the same compound?
**A.** 128 µg/mL (≈ 117 µM)

**Q.** What about the “MIC Staphylococcus aureus (GC 3051)” value ([2]; strain GC 3051) of the same compound?
**A.** 128 µg/mL (≈ 117 µM)

**Q.** And the “MIC Staphylococcus aureus (GC 3053)” value ([2]; strain GC 3053)?
**A.** 128 µg/mL (≈ 117 µM)

**Q.** What about the “MIC Staphylococcus aureus (GC 4541)” value ([2]; strain GC 4541) of the same compound?
**A.** 64 µg/mL (≈ 58.3 µM)

**Q.** What about the “MIC Staphylococcus aureus (GC 4542)” value ([2]; strain GC 4542) of the same compound?
**A.** 128 µg/mL (≈ 117 µM)

**Q.** What about the “MIC Staphylococcus aureus-SMITH (GC 4543)” value ([2]; strain GC 4543) of the same compound?
**A.** 64 µg/mL (≈ 58.3 µM)

**Q.** And the “MIC Staphylococcus aureus (GC 4544)” value ([2]; strain GC 4544)?
**A.** 128 µg/mL (≈ 117 µM)

**Q.** What about the “MIC Staphylococcus aureus (GC 4545)” value ([2]; strain GC 4545) of the same compound?
**A.** 32 µg/mL (≈ 29.1 µM)

**Q.** And the “MIC Staphylococcus haemolyticus (GC 4546)” value ([2]; strain GC 4546)?
**A.** 8 µg/mL (≈ 7.28 µM)

**Q.** What about the “MIC Coagulase Negative Staphylococcus (GC 4547)” value ([2]; strain GC 4547) of the same compound?
**A.** 16 µg/mL (≈ 14.6 µM)

**Q.** And the “MIC Coagulase Negative Staphylococcus (GC 4548)” value ([2]; strain GC 4548)?
**A.** 32 µg/mL (≈ 29.1 µM)

**Q.** What about the “MIC Coagulase Negative Staphylococcus (GC 4549)” value ([2]; strain GC 4549) of the same compound?
**A.** 4 µg/mL (≈ 3.64 µM)

**Q.** What about the “MIC Coagulase Negative Staphylococcus (GC 4551)” value ([2]; strain GC 4551) of the same compound?
**A.** 32 µg/mL (≈ 29.1 µM)

**Q.** And the “MIC Coagulase Negative Staphylococcus (GC 6257)” value ([2]; strain GC 6257)?
**A.** 8 µg/mL (≈ 7.28 µM)

**Q.** And the “MIC Enterococcus faecalis (ATCC 29212)” value ([3]; strain ATCC 29212)?
**A.** >128 µg/mL

**Q.** And the “MIC Enterococcus faecalis (GC 2242)” value ([3]; strain GC 2242)?
**A.** >128 µg/mL

**Q.** What about the “MIC Enterococcus faecium (GC 2243)” value ([3]; strain GC 2243) of the same compound?
**A.** 128 µg/mL (≈ 117 µM)

**Q.** What about the “MIC Enterococcus faecalis (GC 2691)” value ([3]; strain GC 2691) of the same compound?
**A.** >128 µg/mL

**Q.** And the “MIC Enterococcus faecalis (GC 3059)” value ([3]; strain GC 3059)?
**A.** >128 µg/mL

**Q.** What about the “MIC Enterococcus faecalis (GC 4552)” value ([3]; strain GC 4552) of the same compound?
**A.** >128 µg/mL

**Q.** And the “MIC Enterococcus faecalis (GC 4553)” value ([3]; strain GC 4553)?
**A.** 64 µg/mL (≈ 58.3 µM)

**Q.** And the “MIC Enterococcus faecalis (GC 4554)” value ([3]; strain GC 4554)?
**A.** >128 µg/mL

**Q.** And the “MIC Enterococcus faecium (GC 4556)” value ([3]; strain GC 4556)?
**A.** >128 µg/mL

**Q.** And the “MIC Enterococcus faecium (GC 4557)” value ([3]; strain GC 4557)?
**A.** 16 µg/mL (≈ 14.6 µM)

**Q.** What about the “MIC Enterococcus avium (GC 4558)” value ([3]; strain GC 4558) of the same compound?
**A.** 128 µg/mL (≈ 117 µM)

**Q.** And the “MIC Enterococcus faecalis (GC 6189)” value ([3]; strain GC 6189)?
**A.** >128 µg/mL

**Q.** And the “MIC Escherichia coli (ATCC 25922)” value ([4]; strain ATCC 25922)?
**A.** 32 µg/mL (≈ 29.1 µM)

**Q.** And the “MIC Escherichia coli (GC 4559)” value ([4]; strain GC 4559)?
**A.** 32 µg/mL (≈ 29.1 µM)

**Q.** What about the “MIC Escherichia coli (GC 4560)” value ([4]; strain GC 4560) of the same compound?
**A.** 8 µg/mL (≈ 7.28 µM)
